{"source": "patent US20240277684A1", "about": "“BLOCKADE OF CHEMOKINE (C-C MOTIF) RECEPTOR 2 DURING FLUID RESUSCITATION” (University of South Florida, priority 2022, published 2024)", "key": {"hemorrhagic shock [1]": {"test_system": "hemorrhagic shock", "test": "Example 2 Series 1: 30 min hemorrhagic shock, fluid resuscitation until t=90 min", "format": "in vivo, rat", "procedure": "(§1) The hemorrhagic shock models were performed as described previously, with slight modifications (DeSantis A J, et al., The Chemokine (C-C Motif) Receptor 2 Antagonist INCB3284 Reduces Fluid Requirements and Protects From Hemodynamic Decompensation During Resuscitation From Hemorrhagic Shock. Crit Care Explor 2022;4(5):e0701; Bach H H, et al., Chemokine (C-X-C motif) receptor 4 and atypical chemokine receptor 3 regulate vascular alpha(1)-adrenergic receptor function. Mol Med 2014; 20:435-47; Nassoiy S P, et al., Effects of the Kv7 voltage activated potassium channel inhibitor linopirdine in rat models of hemorrhagic shock. Clin Exp Pharmacol Physiol 2018. doi: 10.1111/1440-1681.12958. PubMed PMID: 29702725; Bach H H, et al., Proteasome inhibition prolongs survival during lethal hemorrhagic shock in rats. J Trauma Acute Care Surg 2013; 74(2):499-507). In brief, anesthesia induction was performed with the animal and isoflurane-soaked gauze placed in a bell jar. After anesthesia induction, the animals were transferred to the operative field and anesthesia was maintained with 2.7% isoflurane administered via nose-cone inhalation with the SomnoSuite small animal anesthesia system (Kent Scientific Corporation, Torrington, CT, USA). […] Using a direct cut-down technique, the left femoral artery was isolated and cannulated with a 24-gauge peripheral intravenous catheter to allow for blood withdrawal, hemodynamic monitoring, drug administration, and fluid resuscitation. After catheter placement, isoflurane was decreased to 1.5%. Hemodynamics were continuously monitored with the Surgivet invasive blood pressure monitor (Med-Electronics, Beltsville, MD, USA). Blood pressures were recorded at 1-5 min intervals during the hemorrhage and resuscitation periods. Four subsequent series of experiments were performed. All experiments in each series were performed in alternating order. In all experiments animals were continuously monitored and remained under general anesthesia until euthanasia or death, as defined by asystole or loss of pulse pressure.\nSeries 1: To assess the effects of SB328437 treatment after hemorrhagic shock and fluid resuscitation, and to be able to compare findings with the previous study on the effects of CCR2 and CCR5 inhibition, rats were hemorrhaged to a mean arterial blood pressure (MAP) of less than or equal to 30 mmHg for a period of 30 minutes. At the end of the hemorrhagic shock period (t=30 min), animals were injected with either vehicle (1 mL lactated Ringer's solution (LR), n=5), 0.25 μmol/kg SB328437 (n=3) or 1.1 μmol/kg SB328437 (n=3) in 1 mL LR, followed by fluid resuscitation with 1 mL bolus injections of LR to maintain a systolic blood pressure of 90 mm Hg or an MAP of 60 mm Hg until t=90 min, as described. To avoid fluid overload, bolus injections of LR were limited to 1 mL/min. At t=90 min, surviving animals were euthanized (5% isoflurane inhalation, bilateral pneumothorax)."}, "hemorrhagic shock [2]": {"test_system": "hemorrhagic shock", "test": "Example 2 Series 2: 60 min hemorrhagic shock, single dose, fluid resuscitation until t=300 min", "format": "in vivo, rat", "procedure": "as §1\nSeries 2: Rats were hemorrhaged to a MAP of less than or equal to 30 mmHg for a period of 60 min, followed by fluid resuscitation until t=300 min as in Series 1. At the end of the hemorrhagic shock period (t=60 min), animals were injected with 1 mL of normal saline (NS) (n=6), 5 μmol/kg (n=6) INCB3284 in 1 mL NS or 1.1 μmol/kg SB 328437 (n=6) in 1 mL NS at t=60 min. At t=0 min, 60 min, 120 min, 180 min, 240 min and 300 min, blood samples (0.3 ml) were obtained and used for arterial blood gas analyses and measurements of routine laboratory parameters. At t=300 min, surviving animals were euthanized (5% isoflurane inhalation, bilateral pneumothorax).\nArterial blood gases and routine laboratory parameters. Arterial blood gases, electrolytes, creatinine, lactate, hematocrit and hemoglobin were analyzed using the Element point of care veterinary blood gas, electrolyte and critical care analyzer (Cuattro Veterinary USA, Loveland, CO, USA)."}, "severe hemorrhagic shock": {"test_system": "severe hemorrhagic shock", "test": "Example 2 Series 4: lethal hemorrhage without fluid resuscitation", "format": "in vivo, rat", "settings": "5 μmol/kg INCB3284 or 1 μmol/kg SB328437 after 40% TBV hemorrhage", "procedure": "as §1\nSeries 4: The purpose of these experiments was to determine whether treatment with the chemokine receptor antagonists increases shock tolerance, blood pressure and survival time without additional fluid resuscitation. As such, death is an intentional endpoint. Earlier endpoints are unable to answer these questions and alternatives are not available. Rats were hemorrhaged 40% total blood volume (TBV) within 10 min. At t=15 min, animals were injected with vehicle (1 mL NS, n=3), 5 μmol/kg INCB3284 in 1 mL NS (n=5) or […] SB 328437 in 1 mL NS (n=5). Animals were then hemorrhaged 2% TBV every 5 minutes until death."}, "solubility": {"test": "solubility", "format": "physicochemical"}, "CCR3 [3]": {"target": "T1, CCR3 (Homo sapiens, UniProt P51677)", "T1 sequence (P51677 1-355)": "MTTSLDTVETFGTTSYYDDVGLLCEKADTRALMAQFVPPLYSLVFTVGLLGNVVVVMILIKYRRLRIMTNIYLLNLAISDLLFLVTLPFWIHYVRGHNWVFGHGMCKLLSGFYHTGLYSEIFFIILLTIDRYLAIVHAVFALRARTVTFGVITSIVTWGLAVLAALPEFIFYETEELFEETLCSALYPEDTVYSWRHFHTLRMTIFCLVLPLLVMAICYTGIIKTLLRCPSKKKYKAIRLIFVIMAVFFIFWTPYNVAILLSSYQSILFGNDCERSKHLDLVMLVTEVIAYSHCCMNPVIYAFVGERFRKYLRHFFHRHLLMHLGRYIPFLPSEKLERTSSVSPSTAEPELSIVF", "settings": "read-out: IC50, CCR3 antagonist; cited from earlier work"}, "CCR2": {"target": "CCR2 (Homo sapiens, UniProt P41597)", "sequence (P41597 whole entry, species assumed)": "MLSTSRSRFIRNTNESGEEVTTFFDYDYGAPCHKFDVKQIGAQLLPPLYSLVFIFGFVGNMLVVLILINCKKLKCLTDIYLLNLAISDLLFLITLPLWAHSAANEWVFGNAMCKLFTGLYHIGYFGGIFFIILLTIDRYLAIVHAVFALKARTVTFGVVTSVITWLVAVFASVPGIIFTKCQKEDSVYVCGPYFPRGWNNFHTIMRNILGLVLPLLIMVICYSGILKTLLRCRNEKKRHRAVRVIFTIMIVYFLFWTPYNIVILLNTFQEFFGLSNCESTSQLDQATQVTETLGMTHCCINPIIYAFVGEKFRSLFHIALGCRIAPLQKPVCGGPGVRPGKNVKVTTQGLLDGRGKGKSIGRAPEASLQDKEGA", "settings": "read-out: Kd, binding affinity of CCL2 for CCR2; cited from earlier work"}, "CCR3 [4]": {"target": "T1, CCR3", "settings": "cited from earlier work"}, "CCR5": {"test_system": "CCR5", "settings": "cited from earlier work"}, "hemorrhagic shock [5]": {"test_system": "hemorrhagic shock", "test": "Example 1 first series: 30 min hemorrhagic shock, fluid resuscitation until t=90 min", "format": "in vivo, rat", "settings": "5.5 μmol/kg Maraviroc at t=30 min, vs vehicle or 1.1 INCB3284", "procedure": "In vivo animal experiments. All procedures were performed in accordance with the National Institutes of Health Guidelines for Use of Laboratory Animals and were approved by the University of South Florida Institutional Animal Care and Use Committeee (IS00008139). Male Sprague-Dawley rats (300-400 g, Envigo, Indianapolis, IN, USA). were anesthetized with 1.7% isoflurane via nose-cone inhalation with the SomnoSuite anesthesia system (Kent Scientific, Torrington, CT, USA). […] The left femoral artery was isolated and cannulated with a 24-gauge peripheral intravenous catheter to allow for blood withdrawal, hemodynamic monitoring, drug administration, and fluid resuscitation. Hemodynamics were continuously monitored with the SurgivetV6400 blood pressure monitor (Med-Electronics, Beltsville, MD, USA), and blood pressures and heart rate were recorded at 1-10 min intervals. All animals were observed over a 10 min period to ensure hemodynamic stability before start of the experiments. All experiments were performed randomized in alternating order. […] Physiol Res 2019; 68(4):675-679; Nassoiy S P, et al., Effects of the Kv7 voltage-activated potassium channel inhibitor linopirdine in rat models of haemorrhagic shock. Clin Exp Pharmacol Physiol 2018; Nassoiy S P, et al., Kv7 voltage-activated potassium channel inhibitors reduce fluid resuscitation requirements after hemorrhagic shock in rats. J Biomed Sci 2017; 24(1):8; Bach H Ht, et al., Proteasome inhibition prolongs survival during lethal hemorrhagic shock in rats. J Trauma Acute Care Surg 2013; 74(2):499-507; Bach H Ht, et al., Chemokine (C-X-C motif) receptor 4 and atypical chemokine receptor 3 regulate vascular alpha(1)-adrenergic receptor function. Mol Med 2014; 20:435-447), with slight modifications. In brief, rats were hemorrhaged to a mean arterial blood pressure (MAP) of less than or equal to 30 mmHg for a period of 30 minutes. At the end of the HS period (t=30 min), animals were injected with either vehicle (1 mL LR) or drug in 1 mL LR, followed by fluid resuscitation with 1 mL bolus injections of LR to maintain a systolic blood pressure (SBP) of 90 mmHg or a MAP of 60 mmHg. To avoid fluid overload, bolus injections of LR were limited to 1 mL/min. […] Animals were then resuscitated until t=90 min. At t=0, 15, 30, 60 and 90 min, blood samples were obtained, and plasma prepared. Samples were stored at -70° C. until further processing. At t=90 min, animals were euthanized (isoflurane inhalation, bilateral pneumothorax)."}}}
{"molecule": "COC(=O)[C@H](Cc1ccc([N+](=O)[O-])cc1)NC(=O)c1cccc2ccccc12", "note": "[SB328437]", "values": [{"measurement": "Fluid requirements to achieve the MAP target vs vehicle", "setting": "hemorrhagic shock [1]; 0.25 μmol/kg at t=30 min", "value": "comparable"}, {"measurement": "MAP vs vehicle treated animals", "setting": "hemorrhagic shock [1]; 0.25 μmol/kg at t=30 min", "value": "indistinguishable"}, {"measurement": "fluid requirements (mean±SE)", "setting": "hemorrhagic shock [1]; 0.25 μmol/kg at t=30 min, until t=90 min", "value": "53 ± 7", "unit": "mL/kg"}, {"measurement": "MAP at the end of the resuscitation period (t=80-90 min)", "setting": "hemorrhagic shock [1]; 1.1 μmol/kg at t=30 min", "value": "higher"}, {"measurement": "reduction of fluid requirements", "setting": "hemorrhagic shock [1]; 1.1 μmol/kg at t=30 min, until t=90 min, vs vehicle", "value": "63±4", "unit": "%"}, {"measurement": "fluid requirements (mean±SE)", "setting": "hemorrhagic shock [1]; 1.1 μmol/kg at t=30 min, until t=90 min, p<0.05 vs. vehicle", "value": "19.5 ± 2", "unit": "mL/kg"}, {"measurement": "median survival time", "setting": "hemorrhagic shock [2]; 1.1 μmol/kg SB328437 or 5 μmol/kg INCB3284 at t=60 min", "value": 290, "unit": "min"}, {"measurement": "animals that survived the resuscitation period", "setting": "hemorrhagic shock [2]; 1.1 μmol/kg SB328437 or 5 μmol/kg INCB3284 at t=60 min, until t=300 min, n=6", "value": "3 of 6"}, {"measurement": "fluid requirements", "setting": "hemorrhagic shock [2]; 1.1 μmol/kg at t=60 min", "value": "could not be significantly reduced"}, {"measurement": "MAP during fluid resuscitation", "setting": "hemorrhagic shock [2]; 1.1 μmol/kg at t=60 min, between t=140-200 min", "value": "lower"}, {"measurement": "MAP during subsequent 2% TBV hemorrhages in 5 min intervals", "setting": "severe hemorrhagic shock; no fluid resuscitation", "value": "indistinguishable among groups"}, {"measurement": "median survival time", "setting": "severe hemorrhagic shock; not significantly different between groups", "value": 64, "unit": "min"}, {"measurement": "solubility", "setting": "solubility", "value": "limited"}, {"measurement": "IC50", "setting": "CCR3 [3]", "value": 4.5, "unit": "nM"}]}
{"molecule": "CCL2: principal endogenous agonist of chemokine (C-C motif) receptor 2 (CCR2)", "values": [{"measurement": "Kd", "setting": "CCR2", "value": "~0.5", "unit": "nM"}, {"measurement": "binding affinity of CCL2 for CCR3 lower than for CCR2", "setting": "CCR3 [4]", "value": "more than 100 fold"}, {"measurement": "binding affinity of CCL2 for CCR5 lower than for CCR2", "setting": "CCR5", "value": "more than 100 fold"}]}
{"molecule": "Maraviroc", "values": [{"measurement": "effect on fluid requirements", "setting": "hemorrhagic shock [5]", "value": "did not affect fluid requirements"}]}
